Experimental data as given in patent publication US8338480B2, “Combination treatment of metabolic disorders” (Wellstat Therapeutics Corporation, priority 2006, dated 2012).
Counter-ions that a name gives are not always drawn. Marks after values point to notes of the source that are not given here.

Tests used:
Assay type in all cases: in vivo
[1] = tested on: db/db mice; assay: Serum glucose and triglycerides in db/db mice treated for 4 weeks (Example 2); details: for Serum Glucose Mean / Serum Triglycerides Mean: 4 weeks oral gavage once per day
Description: (§1) Male db/db mice have a defect in the receptor for the appetite-regulating protein leptin and consequently develop hyperphagia, obesity, insulin resistance, hyperglycemia, hypertriglyceridemia. Male db/db mice are an accepted animal model for Type II diabetes. The effect of a range of single daily doses of orally administered Compound BI was assessed in this model, and the efficacy of rosiglitazone alone and in combination with Compound BI was also examined.
Male C57BL/Ksola db/db mice (“db/db mice”) were obtained from Harlan (Indianapolis, Ind.) and allowed to acclimate for a minimum of one week. […] Male C57BL/6 mice of the same age were used as lean nondiabetic controls.
(§2) Body weights and blood glucose levels were measured and animals were sorted groups of 6-7 mice with equivalent mean body weights in each group. […].
(§3) • 1. Lean Control (no treatment) • 2. Vehicle • 3. Compound BI 30 mg/kg/day • 4. Compound BI 100 mg/kg/day • 5. Compound BI 150 mg/kg/day • 6. Rosiglitazone 3 mg/kg • 7. Rosiglitazone 3 mg/kg+Compound BI 30 mg/kg • 8. Rosiglitazone 3 mg/kg+Compound BI 100 mg/kg • 9. Rosiglitazone 20 mg/kg • 10. Rosiglitazone 20 mg/kg+Compound BI 30 mg/kg • 11. Rosiglitazone 20 mg/kg+Compound BI 100 mg/kg
(§4) Drug preparation: Compound BI was suspended in a vehicle comprising 1% aqueous hydroxypropylmethylcellulose, using a tissue homogenizer to minimize particle size and maximize uniformity of the suspension. Rosiglitazone was suspended in the same vehicle. Drug concentrations in the dosing suspension for each treatment group were adjusted according to body weights so that a constant volume of 0.4 ml provided appropropriate drug doses in all groups.
(§5) Drug Administration: Drugs were administered orally by gavage once per day for 28 days.
Blood sampling: For serum chemistry analysis, nonfasting blood samples (200 microliters) were obtained via the retro-orbital sinus and collected in serum separator tubes at 11 AM on days 14 and 28 after initiation of drug administration.

[2] = tested on: db/db mice; assay: Body weight and food consumption in db/db mice treated for 4 weeks (Example 2); details: for Body Weight (grams) Mean ± SD 4 Weeks / Food Consumption Week 2 / Food Consumption Week 3 / Food Consumption Week 4 / Change in Body Weight (grams): db/db mice; for Change in Body Weight (grams): initial to 4 weeks
Description: as §1
Male C57BL/Ksola db/db mice (“db/db mice”) were obtained from Harlan (Indianapolis, Ind.) and allowed to acclimate for a minimum of one week. Animals received Purina 5008 Lab Diet and tap water ad libitum and were housed with 3-4 animals per cage. Male C57BL/6 mice of the same age were used as lean nondiabetic controls.
as §2, §3, §4, §5

[3] = tested on: Male C57B1/6 mice; assay: Food intake and body weight of male C57Bl/6 mice under restricted feeding (Example 3); details: for Post-treatment Food Intake (5 Hour): 5 hour meal; for Change in Body weight % / Change in Body weight (grams ± SEM) / Post-treatment Body weight: restricted feeding
Description: Animals. […] Food was withheld for the remainder of each day. Because of the restricted feeding time, the mice eat less than under ad libitum food availability. Therefore, reduction of food intake in this model requires a drug effect sufficient to overcome the hunger stimulus provided by subnormal daily food intake. Drug Administration. Groups of 10 mice each (individually weighed and marked, divided into 5/cage and trained and monitored as above; were dosed once per day with Compound BI (100 mg/kg), rosiglitazone (3 mg/kg), both drugs, or vehicle by oral gavage at 8 AM for four consecutive days. Comparator groups receiving appetite modulators not suitable for oral dosing (PYY and cerulenin) received intraperitoneal injections at 8 AM for four consecutive days. […] [table]

[4] = tested on: db/db mice; assay: Serum glucose in db/db mice after two weeks (Example 4)
Description: (§6) • 8. Vehicle (1% hydroxypropylmethylcellulose) • 9. Compound BI 100 mg/kg • 10. Rosiglitazone (RSG) 3 mg/kg • 11. Compound BI 100 mg/kg+RSG 3 mg/kg • 12. Compound CF 100 mg/kg • 13. Compound CF 100 mg/kg+RSG 3 mg/kg • 14. Compound CT 100 mg/kg+RSG 3 mg/kg • 15. […]
(§7) After two weeks, blood samples were collected from the retro-orbital sinus and processed for serum chemistry measurements.

[5] = tested on: Adiponectin; assay: Serum adiponectin in db/db mice after two weeks (Example 4); details: for Adiponectin ± SD: db/db mice serum
From the text: Adiponectin is an glycoprotein secreted from white adipose tissue. Adiponectin improves insulin sensitive in other tissues, e.g. muscle and liver, and is also protective against atherosclerosis. Thiazolidinedione antidiabetic agents such as rosiglitazone or pioglitazone act largely via action at the PPAR-gamma, a nuclear receptor involved in regulation of fuel metabolism. PPAR-gamma agonists enhance adiponectin production by adipose tissue, and this may contribute to their beneficial effects in diabetes and related metabolic disorders.
as §6, §7

[6] = tested on: db/db mice; assay: Serum glucose in db/db mice, combinations with rosiglitazone or pioglitazone, 4 weeks (Example 5); details: 4 weeks oral once per day
Description: as §1
Male C57BL/Ksola db/db mice (“db/db mice”) were obtained from Harlan (Indianapolis, Ind.) and allowed to acclimate for a minimum of one week.
as §2
• 12. Vehicle • 13. Compound BI 100 mg/kg/day • 14. Rosiglitazone 3 mg/kg • 15. Rosiglitazone 3 mg/kg+Compound BI 100 mg/kg • 16. Pioglitazone 30 mg/kg • 17. Pioglitazone 30 mg/kg+Compound BI 100 mg/kg • 18. Pioglitazone 100 mg/kg • 19. Pioglitazone 100 mg/kg+Compound BI 100 mg/kg
as §4, with “Pioglitazone and rosiglitazone were” for “Rosiglitazone was”, “vehicle after pulverization of commercial tablets of each of these drugs.” for “vehicle.”
as §5
Blood sampling: For serum chemistry analysis, nonfasting blood samples (200 microliters) were obtained via the retro-orbital sinus and collected in serum separator tubes at 11 AM on day 28 after initiation of drug administration.

[7] = Rosiglitazone 3 mg/kg oral once per day
[8] = Compound BI 100 mg/kg oral once per day

CN(CCOc1ccc(CC2SC(=O)NC2=O)cc1)c1ccccn1 (stereo not drawn) [RSG, rosiglitazone maleate, reference compound]
Serum Glucose Mean ([1]; RSG 3 mg/kg): 382.8 mg/dL
Serum Triglycerides Mean ([1]; RSG 3 mg/kg): 99.2* mg/dL
Serum Glucose Mean ([1]; RSG 20 mg/kg): 344.7 mg/dL
Serum Triglycerides Mean ([1]; RSG 20 mg/kg): 117.3* mg/dL
Body Weight (grams) Mean ± SD 4 Weeks ([2]; 4 Weeks oral once per day, RSG 20 mg/kg): 51.4 ± 1.4 grams
Body Weight (grams) Mean ± SD 4 Weeks ([2]; 4 weeks oral once per day, RSG 3 mg/kg): 48.2 ± 2.6 grams
Food Consumption Week 2 ([2]; RSG 3 mg/kg): 5.3 grams/24 hr/mouse
Food Consumption Week 2 ([2]; RSG 20 mg/kg): 5.4 grams/24 hr/mouse
Food Consumption Week 3 ([2]; RSG 3 mg/kg): 4.0 grams/24 hr/mouse
Food Consumption Week 3 ([2]; RSG 20 mg/kg): 5.9 grams/24 hr/mouse
Food Consumption Week 4 ([2]; RSG 3 mg/kg): 4.8 grams/24 hr/mouse
Food Consumption Week 4 ([2]; RSG 20 mg/kg): 6.3 grams/24 hr/mouse
Change in Body Weight (grams) ([2]; RSG 3 mg/kg): +6.4 grams
Change in Body Weight (grams) ([2]; RSG 20 mg/kg): +10.3 grams
Post-treatment Food Intake (5 Hour) [3, 7]: 2.21 ± 0.15 grams
Change in Body weight % [3, 7]: −0.55 ± 0.44%
Change in Body weight (grams ± SEM) [3, 7]: −0.12 ± 0.09 grams
Post-treatment Body weight [3, 7]: 20.76 ± 0.39 grams
Glucose ± SD ([4]; RSG 3 mg/kg alone): 258 ± 74 mg/dL
Adiponectin ± SD ([5]; RSG 3 mg/kg alone): 12.3 ± 3.0 micrograms/ml
Serum Glucose (mg/dL) Mean ± SD ([6]; RSG 3 mg/kg): 432 ± 138 mg/dL

Cc1cccc(C)c1COc1cccc(C(=O)CCC(=O)O)c1 [Compound BI, 4-(3-(2,6-Dimethylbenzyloxy)phenyl)-4-oxobutyric acid]
Serum Glucose Mean ([1]; Compound BI 30 mg/kg): 657.8 mg/dL
Serum Triglycerides Mean ([1]; Compound BI 30 mg/kg): 281.2* mg/dL
Serum Glucose Mean ([1]; Compound BI 100 mg/kg): 330.3* mg/dL
Serum Triglycerides Mean ([1]; Compound BI 100 mg/kg): 179.1* mg/dL
Serum Glucose Mean ([1]; Compound BI 150 mg/kg): 271.7* mg/dL
Serum Triglycerides Mean ([1]; Compound BI 150 mg/kg): 177.7* mg/dL
hyperglycemia, hypertriglyceridemia and free fatty acid levels (in words) ([1]; combination: rosiglitazone 3 mg/kg/day + Compound BI 30 mg/kg/day): dose-dependent attenuation of hyperglycemia, hypertriglyceridemia and free fatty acid levels
serum glucose (in words) ([1]; oral once per day for 28 days): dose dependent reduction of serum glucose
body weight and food intake (in words) ([2]; Compound BI 30 mg/kg, RSG 3 mg/kg, alone or combined): little effect on body weight and food intake
Body Weight (grams) Mean ± SD 4 Weeks ([2]; 4 Weeks oral once per day, Compound BI 30 mg/kg): 50.3 ± 2.1 grams
Body Weight (grams) Mean ± SD 4 Weeks ([2]; 4 Weeks oral once per day, Compound BI 150 mg/kg): 47.4 ± 2.7 grams
Body Weight (grams) Mean ± SD 4 Weeks ([2]; 4 weeks oral once per day, Compound BI 100 mg/kg): 47.8 ± 3.6 grams
Food Consumption Week 2 ([2]; Compound BI 30 mg/kg): 5.3 grams/24 hr/mouse
Food Consumption Week 2 ([2]; Compound BI 100 mg/kg): 3.6 grams/24 hr/mouse
Food Consumption Week 2 ([2]; Compound BI 150 mg/kg): 3.1 grams/24 hr/mouse
Food Consumption Week 3 ([2]; Compound BI 30 mg/kg): 4.9 grams/24 hr/mouse
Food Consumption Week 3 ([2]; Compound BI 100 mg/kg): 3.7 grams/24 hr/mouse
Food Consumption Week 3 ([2]; Compound BI 150 mg/kg): 4.1 grams/24 hr/mouse
Food Consumption Week 4 ([2]; Compound BI 30 mg/kg): 5.6 grams/24 hr/mouse
Food Consumption Week 4 ([2]; Compound BI 100 mg/kg): 5.1 grams/24 hr/mouse
Food Consumption Week 4 ([2]; Compound BI 150 mg/kg): 6 grams/24 hr/mouse
Change in Body Weight (grams) ([2]; Compound BI 30 mg/kg): +8.4 grams
Change in Body Weight (grams) ([2]; Compound BI 100 mg/kg): +6.3 grams
Change in Body Weight (grams) ([2]; Compound BI 150 mg/kg): +6.6 grams
Post-treatment Food Intake (5 Hour) [3, 8]: 2.00 ± 0.18 grams
Change in Body weight % [3, 8]: −1.90 ± 0.73%
Change in Body weight (grams ± SEM) [3, 8]: −0.40 ± 0.15 grams
Post-treatment Body weight [3, 8]: 20.57 ± 0.51 grams
Glucose ± SD ([4]; compound alone 100 mg/kg): 206 ± 44 mg/dL
Adiponectin ± SD ([5]; compound alone 100 mg/kg): 9.3 ± 4.8 micrograms/ml
effect on adiponectin with concurrent rosiglitazone (in words) ([5]; db/db mice, 100 mg/kg + RSG 3 mg/kg): strongly amplify the effect of concurrent rosiglitazone on adiponectin
serum adiponectin, individual agents (in words) ([5]; db/db mice, agent alone): did not elevate serum adiponectin levels
Serum Glucose (mg/dL) Mean ± SD ([6]; Compound BI 100 mg/kg): 376 ± 151 mg/dL
